Our source for the IC50 values is BindingDB's records for patent US20250092039 (Tiger Biotherapeutics, 2025).

Structures are written as SMILES. A value given as a limit tells only on which side of the number the result lay.

For this experiment, the target named is GTPase KRas [G12V]/RAF proto-oncogene serine/threonine-protein kinase (Homo sapiens, UniProt P01116, G12V). Briefly: KRAS/RAF1 Binding Inhibition Assay. As to the method:
The test compounds in 2% DMSO (final concentration) at various concentrations were then added to the reaction mixture and incubated for 60 minutes at 4° C.

`CCc1c(F)ccc2cc(O)cc(-c3ncc4c(N5CCCNC(=O)C5)nc(OCC5(CN6CCC(CN7CCN(c8ccc9c(c8)CN([C@H]8CCC(=O)NC8=O)C9=O)CC7)CC6)CC5)nc4c3F)c12` [US20250092039, Compound 95] displayed an IC50 of more than 200 nM.

In the case of `CCc1c(F)ccc2cc(O)cc(-c3ncc4c(N5CCCNC(=O)C5)nc(OCC5(CN6CCC7(CC6)CC(CN6CCN(c8ccc9c(c8)CN([C@H]8CCC(=O)NC8=O)C9=O)CC6)C7)CC5)nc4c3F)c12` [US20250092039, Compound 93], the IC50 was not above 200 nM.
